Results published in patent USRE38329E1, “Chelated complexes of paramagnetic metals with low toxicity” (Bracco Imaging S.p.A., priority 1997, dated 2003).

What follows are molecules tested on mouse (assay: DL50 after intracerebroventricular administration to the mouse (neurotoxicity / molecular toxicity)).
Format: in vivo
Text: DL50 values after intracerebral administration (intracisternal, intracerebroventricular), for example in the mouse and in the rat, can therefore be taken as a highly sensitive index of the molecular toxicity of the contrast agent (Toxicology Letters, cited ref.). In particular, the intracerebroventricular administration seems to be the most sensitive to discriminate the neurotoxicity of the compounds (Proceedings of the 10th National Congress of the Italian Toxicology Society, Pavia, September 21-24th, 100, 1994).
The present invention relates to chelated complexes of paramagnetic metals characterized by an extremely favourable neurotoxicity profile. […] The compound described in example 1 (gadolinium complex of 10-[2-[[2-(2-hydroxyethoxy)ethyl]amino]-2-oxoethyl]-α,α′,α″-tris(hydroxymethyl)-1,4,7,10-tetraazacyclododecane-1,4,7-triacetic) acid has, for example, a DL50 of 0.23 mmol/kg after intracerebroventricular administration to the mouse. The compounds described in example 2 (gadolinium complex of α,α′,α″-tris (hydroxymethyl)-10-(2-hydroxypropyl)-1,4,7,10-tetraazacyclododecane-1,4,7-triacetic acid) and in Example 4 (Na^+Gd[THM-DOTA]^−) have a very good tolerability as well, with a DL50, after intracerebroventricular administration to the mouse, of 0.170 and 0.150 mmol/kg, respectively; the corresponding value for Gd-DOTA being 0.064 mmol/kg.

Compared with `O=C([O-])CN1C[C@@H](CO)N(CC(=O)[O-])C[C@@H](CO)N(CC(=O)[O-])C[C@@H](CO)N(CC(=O)[O-])C[C@H]1CO.[Gd+3].[Na+]` (relative stereo) [Example 4, Gadolinium complex of [2S-(2R*,5R*,8R*,11R*)]-2,5,8,11-tetra(hydroxymethyl)-1,4,7,10-tetraazacyclododecane-1,4,7,10-tetraacetic acid sodium salt (1:1)], `O=C([O-])CN1CCN(CC(=O)[O-])CCN(CC(=O)[O-])CCN(CC(=O)[O-])CC1.[Gd+3]` [Gd-DOTA, reference compound] is lower in “DL50 after intracerebroventricular administration to the mouse” value: 0.150 mmol/kg for the first, 0.064 mmol/kg for the second.

In the case of `O=C(CN1CCN(C(CO)C(=O)[O-])CCN(C(CO)C(=O)[O-])CCN(C(CO)C(=O)[O-])CC1)NCCOCCO.[Gd+3]` (stereo not drawn) [Example 1, Gadolinium complex of 10-[2-[[2-(2-hydroxyethoxy)ethyl]amino]-2-oxoethyl]-α,α′,α″-tris(hydroxymethyl)-1,4,7,10-tetraazacyclododecane-1,4,7-triacetic acid], the “DL50 after intracerebroventricular administration to the mouse” value is reported as 0.23 mmol/kg.
